Assay results published in ChEMBL document CHEMBL1201862, “PubChem BioAssay data set” (2004).
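Compound exposure: 48 hours, 5 concentrations, 96-well plates. GI50 marks 50% less growth.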 Activity calls are given as the source filed them. No stated cut-off is given here; in the data, active = GI50 up to about 1.1 µM and inactive = higher.

Columns and labels:
Assay in all cases: growth of human tumour cells (NCI), 48 h
MDA-MB-231 = system: MDA-MB-231
RXF 393 = system: RXF 393
UO-31 = system: UO-31
Malme-3M = system: Malme-3M
NCI-H522 = system: NCI-H522
NCI/ADR-RES = system: NCI/ADR-RES
SK-MEL-28 = system: SK-MEL-28
CCRF-CEM = system: CCRF-CEM
HL-60 = system: HL-60
COLO 205 = system: COLO 205
MDA-N = system: MDA-N
HOP-92 = system: HOP-92
A549 = system: A549
MCF7 = system: MCF7
NCI-H226 = system: NCI-H226
EKVX = system: EKVX
UACC-62 = system: UACC-62
KM12 = system: KM12
CAKI-1 = system: CAKI-1
SNB-75 = system: SNB-75
HCC 2998 = system: HCC 2998
NCI-H460 = system: NCI-H460
HCT-116 = system: HCT-116
SW-620 = system: SW-620
MOLT-4 = system: MOLT-4
786-0 = system: 786-0
TK-10 = system: TK-10
OVCAR-3 = system: OVCAR-3
NCI-H23 = system: NCI-H23
OVCAR-4 = system: OVCAR-4
BT-549 = system: BT-549
MDA-MB-435 = system: MDA-MB-435
SF-268 = system: SF-268
K562 = system: K562
A498 = system: A498
HOP-62 = system: HOP-62
IGROV-1 = system: IGROV-1
OVCAR-5 = system: OVCAR-5
SF-295 = system: SF-295
SN12C = system: SN12C
M14 = system: M14
UACC-257 = system: UACC-257
OVCAR-8 = system: OVCAR-8
SF-539 = system: SF-539
SR = system: SR
DU-145 = system: DU-145
SNB-19 = system: SNB-19
Hs-578T = system: Hs-578T
LOX IMVI = system: LOX IMVI
SK-MEL-5 = system: SK-MEL-5
T47D = system: T47D
U-251 = system: U-251
HT-29 = system: HT-29
HCT-15 = system: HCT-15
PC-3 = system: PC-3
ACHN = system: ACHN
SK-MEL-2 = system: SK-MEL-2
SK-OV-3 = system: SK-OV-3
RPMI-8226 = system: RPMI-8226

O=S(=O)(Nc1ccccc1)c1ccc(-c2c3nc(c(-c4ccc(S(=O)(=O)Nc5ccccc5)cc4)c4ccc([nH]4)c(-c4ccc(S(=O)(=O)Nc5ccccc5)cc4)c4nc(c(-c5ccc(S(=O)(=O)Nc6ccccc6)cc5)c5ccc2[nH]5)C=C4)C=C3)cc1
GI50 (MDA-MB-231): 24 µM (inactive) | GI50 (RXF 393): > 31.6 µM (inactive) | GI50 (UO-31): > 31.6 µM (inactive) | GI50 (Malme-3M): > 31.6 µM (inactive) | GI50 (NCI-H522): > 31.6 µM (inactive) | GI50 (NCI/ADR-RES): > 31.6 µM (inactive) | GI50 (SK-MEL-28): > 10 µM (inactive) | GI50 (CCRF-CEM): > 31.6 µM (inactive) | GI50 (HL-60): > 31.6 µM (inactive) | GI50 (COLO 205): > 31.6 µM (inactive) | GI50 (MDA-N): > 31.6 µM (inactive) | GI50 (HOP-92): 12.8 µM (inactive) | GI50 (A549): > 31.6 µM (inactive) | GI50 (MCF7): > 31.6 µM (inactive) | GI50 (NCI-H226): > 100 µM (inactive) | GI50 (EKVX): > 31.6 µM (inactive) | GI50 (UACC-62): > 31.6 µM (inactive) | GI50 (KM12): > 31.6 µM (inactive) | GI50 (CAKI-1): > 31.6 µM (inactive) | GI50 (SNB-75): 11.5 µM (inactive) | GI50 (HCC 2998): 17.7 µM (inactive) | GI50 (NCI-H460): 11.6 µM (inactive) | GI50 (HCT-116): > 31.6 µM (inactive) | GI50 (SW-620): > 31.6 µM (inactive) | GI50 (MOLT-4): > 31.6 µM (inactive) | GI50 (786-0): 18.9 µM (inactive) | GI50 (TK-10): > 31.6 µM (inactive) | GI50 (OVCAR-3): > 10 µM (inactive) | GI50 (NCI-H23): > 31.6 µM (inactive) | GI50 (OVCAR-4): 12.6 µM (inactive) | GI50 (BT-549): > 31.6 µM (inactive) | GI50 (MDA-MB-435): > 31.6 µM (inactive) | GI50 (SF-268): > 31.6 µM (inactive) | GI50 (K562): > 31.6 µM (inactive) | GI50 (A498): > 31.6 µM (inactive) | GI50 (HOP-62): > 10 µM (inactive) | GI50 (IGROV-1): > 93.3 µM (inactive) | GI50 (OVCAR-5): > 31.6 µM (inactive) | GI50 (SF-295): 22.9 µM (inactive) | GI50 (SN12C): > 31.6 µM (inactive) | GI50 (M14): 12.6 µM (inactive) | GI50 (UACC-257): 26.4 µM (inactive) | GI50 (OVCAR-8): > 31.6 µM (inactive) | GI50 (SF-539): > 31.6 µM (inactive) | GI50 (SR): > 31.6 µM (inactive) | GI50 (DU-145): > 31.6 µM (inactive) | GI50 (SNB-19): 14.1 µM (inactive) | GI50 (Hs-578T): > 31.6 µM (inactive) | GI50 (LOX IMVI): > 10 µM (inactive) | GI50 (SK-MEL-5): > 31.6 µM (inactive) | GI50 (T47D): > 31.6 µM (inactive) | GI50 (U-251): > 31.6 µM (inactive) | GI50 (HT-29): > 31.6 µM (inactive) | GI50 (HCT-15): > 31.6 µM | GI50 (PC-3): > 31.6 µM (inactive) | GI50 (ACHN): 11.1 µM (inactive) | GI50 (SK-MEL-2): > 31.6 µM (inactive) | GI50 (SK-OV-3): > 31.6 µM (inactive)

COc1cc2c(cc1OC)C/C(=N\O)c1cc(OC)c(OC)cc1/C=C\2
GI50 (MDA-MB-231): 5.87 µM (inactive) | GI50 (RXF 393): 5.25 µM (inactive) | GI50 (UO-31): 15.9 µM (inactive) | GI50 (Malme-3M): 1.48 µM (inactive) | GI50 (NCI-H522): 1.01 µM (active) | GI50 (NCI/ADR-RES): 5.55 µM (inactive) | GI50 (SK-MEL-28): 4.6 µM (inactive) | GI50 (CCRF-CEM): 13.1 µM (inactive) | GI50 (HL-60): 3.03 µM (inactive) | GI50 (COLO 205): 4.91 µM (inactive) | GI50 (MDA-N): 1.42 µM (inactive) | GI50 (HOP-92): 43.8 µM (inactive) | GI50 (A549): 8.38 µM (inactive) | GI50 (MCF7): 5.27 µM (inactive) | GI50 (NCI-H226): 5.56 µM (inactive) | GI50 (EKVX): 10.7 µM (inactive) | GI50 (UACC-62): 6.81 µM (inactive) | GI50 (RPMI-8226): 3.82 µM (inactive) | GI50 (KM12): 5.2 µM (inactive) | GI50 (CAKI-1): 3.61 µM (inactive) | GI50 (SNB-75): 5.31 µM (inactive) | GI50 (HCC 2998): 2.95 µM (inactive) | GI50 (NCI-H460): 3.15 µM (inactive) | GI50 (HCT-116): 3.82 µM (inactive) | GI50 (SW-620): 3.48 µM (inactive) | GI50 (MOLT-4): 6.41 µM (inactive) | GI50 (786-0): 5.52 µM (inactive) | GI50 (TK-10): 18.8 µM (inactive) | GI50 (OVCAR-3): 3.67 µM (inactive) | GI50 (NCI-H23): 14.2 µM (inactive) | GI50 (OVCAR-4): 55.5 µM (inactive) | GI50 (BT-549): 28.7 µM (inactive) | GI50 (MDA-MB-435): 0.822 µM (active) | GI50 (SF-268): 6.24 µM (inactive) | GI50 (K562): 4.86 µM (inactive) | GI50 (A498): 21.2 µM (inactive) | GI50 (HOP-62): 2.82 µM (inactive) | GI50 (IGROV-1): 3.37 µM (inactive) | GI50 (SF-295): 3.74 µM (inactive) | GI50 (SN12C): 10.4 µM (inactive) | GI50 (M14): 3.47 µM (inactive) | GI50 (UACC-257): 10.4 µM (inactive) | GI50 (OVCAR-8): 10.4 µM (inactive) | GI50 (SF-539): 4.22 µM (inactive) | GI50 (SR): 1.66 µM (inactive) | GI50 (DU-145): 4.49 µM (inactive) | GI50 (SNB-19): 7.08 µM (inactive) | GI50 (Hs-578T): 2.12 µM (inactive) | GI50 (LOX IMVI): 6.4 µM (inactive) | GI50 (SK-MEL-5): 1.95 µM (inactive) | GI50 (T47D): 10.6 µM (inactive) | GI50 (U-251): 4.66 µM (inactive) | GI50 (HT-29): 3.67 µM (inactive) | GI50 (HCT-15): 5.31 µM | GI50 (PC-3): 10.2 µM (inactive) | GI50 (ACHN): 12.9 µM (inactive) | GI50 (SK-MEL-2): 3.44 µM (inactive) | GI50 (SK-OV-3): 13.1 µM (inactive)
